Laboratory results from patent publication US5776957A, “Nornicotine enantiomers for use as a treatment for dopamine related conditions and disease states” (The University of Kentucky Research Foundation, priority 1996, dated 1998).
Entries after “also recorded” stand apart in the source; their conditions may differ. Read-outs that look alike come from different tables or passages of the source.

Key:
[1] = test system: mouse striatal synaptosomes; conditions: Grady et al., 1992, cited from earlier work
[2] = NIC and metabolites in rat brain after s.c. injection of radiolabelled NIC; type: in vivo
Description: NIC metabolism studies involving HPLRC analysis invariably utilize NIC with a radiolabel (i.e., [^3 H], [^14 C] or [^11 C]) incorporated in the methyl group. However N-demethylated NIC metabolites (norNIC and norCOT) cannot be detected after injection of such radionuclides, since the label is lost in the formation of these metabolites. NIC and four NIC metabolites have recently been detected in rat brain 4 hr after s.c. injection of [2'-^14 C]NIC (FIG. 3, Table I). Three of these metabolites have been identified as COT, norNIC and norCOT. A fourth minor metabolite (Peak B) has not been completely identified but appears to be an N-demethylated metabolite, since it is not detected in the [^3 H-N-methyl]NIC studies.
COT, and therefore, is unlikely to originate from COT N-demethylation. 3-HydroxyCOT and its glucuronide conjugate were not detected as metabolites of either NIC or COT in brain, even though these are major biotransformation products in the periphery (Crooks, 1993).
It appears that NIC metabolites which accumulate with a time course that correlates with the development of behavioral sensitization to NIC have a role in eliciting sensitization to NIC. The inventors have detected NIC, COT, norNIC and norCOT in brain 4 hr following acute s.c. injection of (±)[2'-^14 C]NIC. S(-) [^3 H] -N-methyl]NIC is unsuitable for studying brain metabolism of NIC, since nor-metabolites (i.e., demethylated metabolites) cannot be detected due to [^3 H]-loss during metabolism (Crooks et al., 1995b, AP 7). Thus, commercially available (±)[2'-^14 C]NIC was used to determine NIC metabolites present in brain. This form of radiolabelled NIC provides a metabolically stable [^14 C]-label which allows measurement of all potential NIC metabolites.
A second "metabolite" (Peak A, FIG. 2) was also detected at each time point and most likely results from a combination of metabolic cleavage of the N-methyl group and dissociated-[^3 H], i e, Peak A represents an oxidized 1-carbon unit and indicates the extent of NIC N-demethylation. Note, in our subsequent studies with [2'-^14 C]NIC, Peak A was not observed, which is consistent with our interpretation of the results (Table 1).

[3] = test system: [3H]DA-preloaded rat striatal slices (nicotinic receptors); experiment: [3H]overflow (DA release) from [3H]DA-preloaded rat striatal slices; type: cell-based
Protocol: In vitro pharmacological effects of NIC are generally investigated using either striatal slices or synaptosome preparations preloaded with [^3 H] DA. NIC-evoked [^3 H]overflow is obtained routinely in the presence of nomifensine (10 μM; a DA uptake inhibitor) and for pargyline (10 μM, a monoamine oxidase inhibitor) in the superfusion buffer, such that [^3 H]overflow represents primarily [^3 H]DA rather than [H]DA-metabolites (Zumstein et al., 1981, Hoffmann and Cubeddu, 1982, Dwoskin and Zahniser, 1986, Rapier et al., 1988), and for this reason, [^3 H]overflow also will be referred to as [^3 H] DA release in the proposal.
The present studies use striatal slices superfused with various concentrations of NIC or norNIC for prolonged periods.
FIG. 4. […] Insets illustrate the response to the low concentration range. […] NIC exposure indicated by the bar under time course. Note: 1-min sample collection period. […] N=4 rats.
Rat striatal slices were depolarized with 10 μM NIC, 20 mM K+or 1 Hz, 60 pulses or 3 Hz, 180 pulses electrical field stimulation. […] N=4.
MEC or DHβE was included in the superfusion buffer for 60 min prior to the addition of NIC, and superfusion continued for 60 min in the presence of NIC+antagonist.

[4] = Amphetamine drug discrimination (substitution tests); type: in vivo, rat
Protocol: Rats were trained in on two-lever food-reinforced operant tasks to discriminate amphetamine (1 mg/kg) from saline. After discrimination training stabilized, test doses of amphetamine (0.0625-2.0 mg/kg), nicotine (0.1-1.0 mg/kg) or nornicotine (1-10 mg/kg) were assessed for their ability to substitute for the amphetamine training dose during brief test sessions in which food reinforcement was withheld.
Nine male Sprague-Hawley rats were obtained from Harlan Industries (Indianapolis, Ind.) and were caged individually with water continuously available. Food access was restricted in order to maintain body weights at approximately 80% of free-feeding weight. Prior to the start of the experiment, all rats received a single injection of amphetamine (1 mg.kg, IP) as part of an unrelated experiment. Apparatus Six operant chambers (ENV-001, Med Associates, St. Albans, Vt.) enclosed in a sound attenuating environment were used. Located in the bottom center of the front panel in each chamber was a 5×4.-cm opening to a recessed food tray. Two metal response levers were located on the front panel, one on each side of the food tray. The center of each lever was mounted 7.3 cm from the grid floor. A 28-Vcue light, 3 cm in diameter, was centered 6 cm above each lever. A personal computer, interfaced to the chamber with Med Associates equipment, controlled the experimental sessions and collected data.
The general procedures utilized to establish amphetamine discrimination were similar to those outlined previously (13). Briefly, rats were first given access to food pellets (45 mg sucrose pellet, Noyes Co., Lancaster, N.H.) dispensed noncontingently into the food tray with both levers present. One lever was then removed and the rat was shaped to depress the other lever for food reinforcement. Following this, rats received 15-min daily sessions in which the lever (left or right) available for food reinforcement was alternated daily. […] The start of each session was signaled by the onset of both cue lights mounted above the levers, and the termination of each session was signaled by the offset of these lights. This training phase was continued until the rat earned 20 reinforces on an FR25 schedule for two days.
Amphetamine discrimination training was conducted Monday through Friday. For this training, both levers were mounted in the chamber. Amphetamine (A; 1 mg/kg) or saline (S), was injected IP 15 min prior to the start of the session, with the order of injections being either AASS or SSAA. The left lever was designated as the amphetamine-correct lever for 4 rats, while the right lever was amphetamine -correct for 5 rats. On Monday, Wednesday and Friday, injection-appropriate responding was food-reinforcedon an FR25 schedule for the entire 15-min session. However, 2-min extinction periods were instituted at the beginning of sessions on Tuesday and Thursday (one amphetamine and one saline test per week) to assess the control of amphetamine (or saline) over responding. […] During the remaining 13 min of these sessions, contingent reinforcement for injection-appropriate responding was reinstated. This phase of training was continued until the rat completed the first FR25 on the correct lever for 10 consecutive sessions and also completed 80% or more responses on the injection-appropriate lever during 4 consecutive extinction periods.
The substitution phase was identical to the previously described amphetamine discrimination phase, except for the Friday session, which was decreased to a 4-min extinction session with no food available.

[5] = cited from earlier work
[6] = rat brain, 4 hrs after s.c. injection, Table 1, footnote e
[7] = rat brain, 4 hrs after s.c. injection, Table 1, footnote f

c1cncc(C2CCCN2)c1 (racemic) [(±) norNIC]
evoked [3H]overflow / [3H]DA release [1]: concentration dependent increase | evoked [3H]overflow / [3H]DA release ([1]; listed as (+) nornicotine): concentration-dependent increase

CN1CCC[14CH]1c1cccnc1 (racemic) [[^14 C-2']-NIC]
Percent of Total Radiolabel: COT [2, 6]: 60.8 ± 0.63% | Percent of Total Radiolabel: NIC [2, 6]: 24.2 ± 2.94% | Percent of Total Radiolabel: Peak A [2, 6]: 0.0 ± 0.0% | Percent of Total Radiolabel: Peak B [2, 6]: 0.0 ± 0.0% | Percent of Total Radiolabel: norNIC [2, 6]: 15.1 ± 2.54% | Percent of Total Radiolabel: COT [2, 7]: 62.9 ± 5.27% | Percent of Total Radiolabel: NIC [2, 7]: 14.2 ± 3.30% | Percent of Total Radiolabel: Peak A [2, 7]: 0.0 ± 0.0% | Percent of Total Radiolabel: Peak B [2, 7]: 2.33 ± 0.12% | Percent of Total Radiolabel: norCOT [2, 7]: 4.15 ± 0.48% | Percent of Total Radiolabel: norNIC [2, 7]: 16.5 ± 2.04%

CN1C(=O)C(O)CC1c1cccnc1 (stereo not shown) [3-HydroxyCOT]
presence as metabolite in brain ([2]; rat, in vivo, sc): not detected

CO[C@H]1CC=C2CCN3CCC4=C(CC(=O)OC4)[C@]23C1 [DHβE, dihydro-β-erythroidine]
inhibition of NIC-evoked [3H]overflow ([3]; 10 μM NIC, concentration-dependent): robustly inhibited | effect on [3H]DA release itself ([3]; 100 μM): evoked the release of [^3 H]DA itself | inhibition of norNIC-evoked [3H]overflow ([3]; high concentrations (100 μM-3 mM) of norNIC): ineffective in inhibiting | inhibition of norNIC-evoked [3H]overflow ([3]; low concentrations (<100 μM) of norNIC): effectively inhibited | mode of antagonism of norNIC response ([3]; norNIC concentration-response curve): competitive

O=C1CCC(c2cccnc2)N1 (stereo not shown) [NorCOT, norcotinine]
presence as metabolite in brain ([2]; rat brain, after s.c. radiolabelled NIC): minor CNS metabolite of NIC

CC(N)Cc1ccccc1 (stereo not drawn) [amphetamine, d-Amphetamine]
substitution for amphetamine training dose ([4]; 1 and 2 mg/kg): substituting fully; also recorded: substituted fully | amphetamine-appropriate responding ([4]; 1 and 2 mg/kg IP, 15 min): greater than 80% | total number of lever presses ([4]; 15 min): dose-related decrease in total number of lever presses | cross-sensitization between nicotine and amphetamine [5]: has not been observed

CCN1CCC[C@H]1CNC(=O)c1c(O)c(Cl)cc(Cl)c1OC [raclopride]
effect on overflow evoked by 1 or 3 Hz stimulation ([3]; 1 μM, electrical field stimulation): increases overflow
